Source: PubChem BioAssay (NCI)
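Protocol summary: plate cells (96-well), add compound at 5 concentrations, incubate 48 h, interpolate endpoints linearly. At the TGI there is no net growth.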

Assays:
Assay in all cases: NCI anticancer screen, dose series, 48 h
[1] = test system: ACHN renal
[2] = test system: NCI-H522 lung
[3] = test system: SF-268 CNS
[4] = test system: 786-0 renal
[5] = test system: RPMI-8226 leukemia
[6] = test system: M14 melanoma
[7] = test system: A549 NSCLC
[8] = test system: SNB-19 CNS
[9] = test system: HOP-92 NSCLC
[10] = test system: MALME-3M melanoma
[11] = test system: SK-MEL-2 melanoma
[12] = test system: SF-539 CNS
[13] = test system: T-47D breast
[14] = test system: HS 578T breast
[15] = test system: MDA-N

| Compound | TGI [1] | TGI [2] | TGI [3] | TGI [4] | TGI [5] | TGI [6] | TGI [7] | TGI [8] | TGI [9] | TGI [10] | TGI [11] | TGI [12] | TGI [13] | TGI [14] | TGI [15] |
| --- | --- | --- | --- | --- | --- | --- | --- | --- | --- | --- | --- | --- | --- | --- | --- |
| O=C(c1cccs1)N(C(=S)N1CCN(c2ccccn2)CC1)C1CCCCC1 | > 100 µM | > 100 µM | > 100 µM | > 100 µM | > 100 µM | > 100 µM | > 100 µM | > 100 µM | > 100 µM | > 100 µM | > 100 µM | > 100 µM |  |  |  |
| CC1=NN(c2nc(N)nc(CSCc3nc(N)nc(N(C)C)n3)n2)C(C)(C)C1 | > 100 µM | > 100 µM | > 100 µM | > 100 µM | > 100 µM | > 100 µM | > 100 µM | > 100 µM | > 100 µM |  | > 100 µM | > 100 µM | > 100 µM | > 100 µM |  |
| O=c1cc(CBr)c2ccc(O)cc2o1 | > 100 µM | > 100 µM | > 100 µM | > 100 µM | > 100 µM | > 100 µM | > 100 µM | > 100 µM |  | > 100 µM | > 100 µM | > 100 µM |  | > 100 µM | > 100 µM |
| O=c1c2cccnc2cc(-c2ccccc2)n1CCO | > 100 µM | > 100 µM | > 100 µM | > 100 µM | > 100 µM | > 100 µM | > 100 µM | > 100 µM |  | > 100 µM | > 100 µM |  | > 100 µM | > 100 µM | > 100 µM |
| CC/C=C/C(=O)CC(O)(C(F)(F)F)C(F)(F)F | > 100 µM |  | > 100 µM | > 100 µM | > 100 µM | > 100 µM | > 100 µM | > 100 µM | 86.3 µM | > 100 µM |  | > 100 µM | > 100 µM | > 100 µM |  |
| N#Cc1c(Cl)/c(=C/O)c(=O)n2c1nc1ccccc12 | > 100 µM | > 100 µM | > 100 µM | > 100 µM | > 100 µM | > 100 µM | > 100 µM | > 100 µM | 68.1 µM | > 100 µM |  | > 100 µM |  | 94.7 µM | > 100 µM |
| CCOC(=O)/C(C#N)=C1\c2c([nH]c(=S)[nH]c2=O)Oc2ccc3ccccc3c21 | > 100 µM | 54.5 µM | > 100 µM | > 100 µM | > 100 µM | > 100 µM | > 100 µM | 58.5 µM | > 100 µM | > 100 µM | 41 µM |  | > 100 µM | > 100 µM | > 100 µM |
| CSC1=N/C(=C\c2ccco2)C(=O)N1CN1CCCCC1 | > 100 µM | > 100 µM | > 100 µM | > 100 µM | > 100 µM | > 100 µM | > 100 µM | > 100 µM | 87.2 µM | > 100 µM | > 100 µM |  |  | > 100 µM | > 100 µM |
| CCCn1c(SCC)c2cc3cc4ccccc4cc3cc2c1-c1nc(F)nc(F)n1 | > 100 µM | > 100 µM | > 100 µM | > 100 µM | > 100 µM | > 100 µM | > 100 µM | > 100 µM | > 100 µM | > 100 µM | > 100 µM | > 100 µM |  |  |  |
| Cn1c(Nc2ccccc2)c(C=Nc2ccccc2)c(=O)n(C)c1=O |  |  | > 100 µM | > 100 µM | > 100 µM | > 100 µM | > 100 µM |  | > 100 µM |  | > 100 µM | > 100 µM |  |  | > 100 µM |
| O=c1oc2ccccc2c(O)c1C(c1ccc(/C=C/c2ccccc2)cc1)c1c(O)c2ccccc2oc1=O | 35.6 µM | 49.1 µM | 64.9 µM | 63.8 µM | > 100 µM |  |  | > 100 µM | 53.5 µM | 65.7 µM | > 100 µM |  | > 100 µM | 75.4 µM | 43.9 µM |
| N#Cc1c(Cl)c2ccccc2n2c1nc1ccccc12 | 32.6 µM |  | 83.7 µM | 51 µM | 72.7 µM | 69.8 µM | > 100 µM | > 100 µM | 48.2 µM |  | > 100 µM | 42.8 µM | 46.8 µM | 63.1 µM | > 100 µM |
| O=C1CCC2CCC1C2 (stereo not given) | > 100 µM |  | > 100 µM | > 100 µM | > 100 µM | > 100 µM | > 100 µM | > 100 µM |  | > 100 µM | > 100 µM | > 100 µM | > 100 µM | > 100 µM | > 100 µM |
| COc1ccc(/C=C2\CCCCCC2=O)cc1 | > 100 µM | > 100 µM | > 100 µM | > 100 µM | > 100 µM | > 100 µM | > 100 µM | > 100 µM | > 100 µM | > 100 µM | > 100 µM | > 100 µM | > 100 µM |  | > 100 µM |
| COC(=O)C1=C(\c2ccccc2)c2ccccc2C(=O)N(C2CCCCC2)/C=C\1 | > 100 µM | > 100 µM | > 100 µM | > 100 µM |  | > 100 µM | > 100 µM | > 100 µM | 95.2 µM | 68.6 µM | 39.2 µM | 55.9 µM |  |  | > 100 µM |
| COc1cc(NCc2ccc3nc(OC)c(OC)nc3c2)cc(OC)c1OC | > 100 µM | > 100 µM | > 100 µM | > 100 µM |  | > 100 µM | > 100 µM | > 100 µM | > 100 µM | > 100 µM | > 100 µM | > 100 µM | > 100 µM |  | > 100 µM |
| O=C1c2ccccc2C2=Nc3ccncc3CN12 | > 100 µM | > 100 µM | > 100 µM | > 100 µM | > 100 µM | > 100 µM | > 100 µM | > 100 µM | > 100 µM | > 100 µM | > 100 µM | > 100 µM |  |  | > 100 µM |
| COc1ccc(C2=C(N)c3c(OC)cccc3C2=O)cc1 |  |  | > 100 µM | > 100 µM | > 100 µM | > 100 µM |  | > 100 µM |  | > 100 µM | > 100 µM | 41.3 µM | > 100 µM | > 100 µM | > 100 µM |
